Data as given in ChEMBL document CHEMBL1201862, “PubChem BioAssay data set” (2004).
One block for each compound: values may come before it. Active and inactive are the calls of the source.

What was measured:
[1] = biological target: T1, Short transient receptor potential channel 4 (Mus musculus, UniProt Q9QUQ5); test: mouse TRPC4 channel activators, dose response, cell-based, HEK293 TRPC4/mu-opioid, Fluo-4 calcium (AID 434937); format: functional
T1 sequence (Q9QUQ5 whole entry): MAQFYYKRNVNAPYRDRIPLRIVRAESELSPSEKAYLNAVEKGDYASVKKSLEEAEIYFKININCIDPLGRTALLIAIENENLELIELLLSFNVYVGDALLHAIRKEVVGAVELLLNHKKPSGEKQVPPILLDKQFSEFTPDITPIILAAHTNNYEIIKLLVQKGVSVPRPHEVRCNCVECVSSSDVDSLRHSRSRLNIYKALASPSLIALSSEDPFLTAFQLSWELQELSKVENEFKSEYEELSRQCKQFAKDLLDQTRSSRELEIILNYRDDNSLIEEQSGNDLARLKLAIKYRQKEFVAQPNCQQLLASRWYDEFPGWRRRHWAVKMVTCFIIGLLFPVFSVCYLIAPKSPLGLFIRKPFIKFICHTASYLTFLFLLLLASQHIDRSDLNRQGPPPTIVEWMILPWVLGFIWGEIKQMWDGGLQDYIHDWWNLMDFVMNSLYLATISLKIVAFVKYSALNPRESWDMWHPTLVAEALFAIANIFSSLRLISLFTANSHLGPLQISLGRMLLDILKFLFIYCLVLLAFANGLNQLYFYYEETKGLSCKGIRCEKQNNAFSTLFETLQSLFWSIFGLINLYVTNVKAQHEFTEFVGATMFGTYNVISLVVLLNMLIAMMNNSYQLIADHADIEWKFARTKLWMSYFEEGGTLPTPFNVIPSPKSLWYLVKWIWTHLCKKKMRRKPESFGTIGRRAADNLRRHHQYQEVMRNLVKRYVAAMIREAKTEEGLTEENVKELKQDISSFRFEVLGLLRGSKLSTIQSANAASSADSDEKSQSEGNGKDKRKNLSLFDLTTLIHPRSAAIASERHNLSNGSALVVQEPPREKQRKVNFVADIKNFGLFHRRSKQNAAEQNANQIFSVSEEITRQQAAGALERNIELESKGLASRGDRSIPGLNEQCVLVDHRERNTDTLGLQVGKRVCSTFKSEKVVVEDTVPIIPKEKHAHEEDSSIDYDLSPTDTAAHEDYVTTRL

[2] = biological target: T2, Kappa-type opioid receptor (Homo sapiens, UniProt P41145); test: SAR analysis of small molecule antagonists of the kappa opioid receptor via a luminescent beta-arrestin assay - Set 4. [Related pubchem assays (depositor defined):AID1777, AID1778, AID1785, AID1786, AID1966, AID2133, AID2136, AID2285]; format: functional
[3] = biological target: T2, Kappa-type opioid receptor; test: SAR analysis of small molecule antagonists of the kappa opioid receptor via a luminescent beta-arrestin assay - Set 5. [Related pubchem assays (depositor defined):AID1778, AID1785]; format: functional
[4] = biological target: T3, Coagulation factor XII (Homo sapiens, UniProt P00748); format: functional;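 note: activated factor XIIa alpha cleaving a fluorogenic AMC peptide substrate; inhibitor potency from loss of enzyme activity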
T3 sequence (P00748 whole entry): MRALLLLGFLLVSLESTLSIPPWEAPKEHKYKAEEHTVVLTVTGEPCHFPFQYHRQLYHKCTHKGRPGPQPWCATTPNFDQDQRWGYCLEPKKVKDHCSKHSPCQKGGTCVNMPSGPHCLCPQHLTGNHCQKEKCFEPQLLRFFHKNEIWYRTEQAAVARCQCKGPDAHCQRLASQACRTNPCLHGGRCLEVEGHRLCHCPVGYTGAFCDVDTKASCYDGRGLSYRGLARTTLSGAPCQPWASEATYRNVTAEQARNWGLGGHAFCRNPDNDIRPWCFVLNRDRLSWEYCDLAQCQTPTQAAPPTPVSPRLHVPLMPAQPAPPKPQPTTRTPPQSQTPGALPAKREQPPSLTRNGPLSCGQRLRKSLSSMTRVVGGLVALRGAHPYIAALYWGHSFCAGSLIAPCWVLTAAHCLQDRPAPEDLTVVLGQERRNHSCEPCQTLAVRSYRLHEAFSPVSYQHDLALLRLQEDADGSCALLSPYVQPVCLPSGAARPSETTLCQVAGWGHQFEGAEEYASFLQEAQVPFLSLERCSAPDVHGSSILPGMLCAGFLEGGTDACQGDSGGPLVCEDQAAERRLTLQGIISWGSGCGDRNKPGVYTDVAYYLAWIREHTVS

[5] = biological target: T4, Aminopeptidase N (Plasmodium falciparum FcB1/Columbia, UniProt O96935); test: P. falciparum M1AAP inhibitors, biochemical, fluorogenic H-Leu-NHMec substrate, 1536-well (AID 1445); set-up: species or system Plasmodium falciparum 3D7, 3D7
T4 sequence (O96935 whole entry): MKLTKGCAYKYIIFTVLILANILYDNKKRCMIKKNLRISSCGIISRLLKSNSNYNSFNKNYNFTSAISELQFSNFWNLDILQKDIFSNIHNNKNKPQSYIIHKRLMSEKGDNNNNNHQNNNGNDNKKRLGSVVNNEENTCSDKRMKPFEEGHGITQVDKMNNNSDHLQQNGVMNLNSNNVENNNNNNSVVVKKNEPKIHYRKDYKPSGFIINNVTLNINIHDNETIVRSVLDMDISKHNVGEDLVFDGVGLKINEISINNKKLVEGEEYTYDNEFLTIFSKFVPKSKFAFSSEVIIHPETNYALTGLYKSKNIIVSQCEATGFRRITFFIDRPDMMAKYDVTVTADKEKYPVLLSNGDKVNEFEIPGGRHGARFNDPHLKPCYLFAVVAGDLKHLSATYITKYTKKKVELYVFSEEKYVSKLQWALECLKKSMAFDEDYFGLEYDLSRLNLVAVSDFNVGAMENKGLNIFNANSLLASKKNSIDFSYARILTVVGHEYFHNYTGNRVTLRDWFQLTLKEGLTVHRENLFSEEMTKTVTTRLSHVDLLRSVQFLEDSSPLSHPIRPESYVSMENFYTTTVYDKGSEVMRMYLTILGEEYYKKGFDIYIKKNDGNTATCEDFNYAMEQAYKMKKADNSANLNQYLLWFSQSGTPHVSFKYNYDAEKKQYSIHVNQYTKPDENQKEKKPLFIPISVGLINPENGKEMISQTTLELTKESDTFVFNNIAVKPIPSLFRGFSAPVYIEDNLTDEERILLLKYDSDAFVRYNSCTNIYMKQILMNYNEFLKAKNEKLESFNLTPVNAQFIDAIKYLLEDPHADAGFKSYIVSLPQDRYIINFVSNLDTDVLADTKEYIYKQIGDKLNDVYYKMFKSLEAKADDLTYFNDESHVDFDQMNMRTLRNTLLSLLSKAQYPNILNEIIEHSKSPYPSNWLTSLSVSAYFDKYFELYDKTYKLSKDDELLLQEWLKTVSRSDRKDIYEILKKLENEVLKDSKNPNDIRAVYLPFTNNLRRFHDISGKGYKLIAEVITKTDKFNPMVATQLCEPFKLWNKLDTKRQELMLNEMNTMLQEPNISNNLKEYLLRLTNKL

[6] = Counterscreen for IDE inhibitors: Luminescence-based cell-based high throughput dose response assay to identify compounds that are cytotoxic to HEK cells. [Related pubchem assays: 434962 (Primary screen (IDE inhibitors in singlicate)), 449730 (Counterscreen (Cytotoxicity in triplicate)), 435028 (Confirmation (IDE inhibitors in triplicate)) …; format: functional; settings: HEK293
[7] = biological target: Ion channel NompC (Danio rerio, UniProt Q7T1G6); test: Dose response cell-based high-throughput screening assay for agonists of the transient receptor potential channel N1 (TRPN1). [Related pubchem assays (depositor defined):AID1424, AID1448]; format: functional
[8] = biological target: Mucolipin-3 (Homo sapiens, UniProt Q8TDD5); test: Fluorescence counterscreen assay for […] agonists: dose response cell-based high-throughput screening assay to identify agonists of the transient receptor potential channel ML3 (TRPML3). [Related pubchem assays: 1424, 1448 ]; format: functional
[9] = biological target: T5, Insulin-degrading enzyme (Homo sapiens, UniProt P14735); test: Dose Response: Fluorescence polarization-based cell-based high throughput dose response assay for inhibitors of insulin-degrading enzyme (IDE). [Related pubchem assays: 434962 (Primary screen (IDE inhibitors in singlicate)), 449730 (Counterscreen (Cytotoxicity in triplicate)), 435028 (Confirmation (IDE inhibitors in triplicate)), 434984 (Summary …; format: functional
T5 sequence (P14735 whole entry): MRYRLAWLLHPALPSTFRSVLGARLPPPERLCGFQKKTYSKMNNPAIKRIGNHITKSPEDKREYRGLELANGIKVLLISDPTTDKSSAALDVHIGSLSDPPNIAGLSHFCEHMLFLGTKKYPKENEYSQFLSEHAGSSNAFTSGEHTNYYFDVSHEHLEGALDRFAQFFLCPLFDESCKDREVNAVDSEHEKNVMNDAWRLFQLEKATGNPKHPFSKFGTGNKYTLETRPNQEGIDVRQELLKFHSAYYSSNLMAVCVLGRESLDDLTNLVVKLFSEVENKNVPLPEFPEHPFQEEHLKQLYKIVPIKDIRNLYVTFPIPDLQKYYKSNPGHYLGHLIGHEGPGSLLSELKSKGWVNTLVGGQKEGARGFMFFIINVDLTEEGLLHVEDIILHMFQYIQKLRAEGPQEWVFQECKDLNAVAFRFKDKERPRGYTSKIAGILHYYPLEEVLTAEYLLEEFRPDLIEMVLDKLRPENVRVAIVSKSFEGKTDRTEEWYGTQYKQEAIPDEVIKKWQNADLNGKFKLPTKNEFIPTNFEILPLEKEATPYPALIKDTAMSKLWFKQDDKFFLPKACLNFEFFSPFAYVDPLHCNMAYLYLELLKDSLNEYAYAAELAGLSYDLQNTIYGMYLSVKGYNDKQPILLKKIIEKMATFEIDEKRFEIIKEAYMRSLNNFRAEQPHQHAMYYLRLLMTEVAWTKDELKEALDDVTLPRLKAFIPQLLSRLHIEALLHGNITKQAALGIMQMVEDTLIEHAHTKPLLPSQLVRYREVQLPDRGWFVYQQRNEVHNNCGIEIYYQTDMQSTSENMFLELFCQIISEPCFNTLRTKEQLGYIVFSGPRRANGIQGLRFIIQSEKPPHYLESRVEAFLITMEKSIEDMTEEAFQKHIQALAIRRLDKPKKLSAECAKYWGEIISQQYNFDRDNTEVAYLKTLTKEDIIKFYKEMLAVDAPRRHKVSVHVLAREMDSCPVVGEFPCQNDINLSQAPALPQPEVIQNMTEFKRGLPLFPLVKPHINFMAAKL

[10] = biological target: Dual specificity tyrosine-phosphorylation-regulated kinase 1A (Rattus norvegicus, UniProt Q63470); format: biochemical, Homo sapiens
[11] = biological target: T6, G-protein coupled receptor 35 (Homo sapiens, UniProt Q9HC97); test: SAR analysis of Agonists of the GPR35 Receptor using an Image-Based Assay - Set 4. [Related pubchem assays (depositor defined):AID2013, AID2026]; format: functional
[12] = biological target: T7, Cannabinoid receptor 1 (Homo sapiens, UniProt P21554); test: SAR analysis of agonists of the Cannabinoid Receptor 1 using an Image-Based Assay - Set 4. [Related pubchem assays (depositor defined):AID2013, AID2026]; format: functional
[13] = biological target: T6, G-protein coupled receptor 35; test: SAR analysis of Antagonists of the GPR35 Receptor using an Image-Based Assay - Set 6. [Related pubchem assays (depositor defined):AID2013, AID2026]; format: functional
[14] = biological target: T7, Cannabinoid receptor 1; test: SAR analysis of antagonists of the Cannabinoid Receptor 1 using an Image-Based Assay - Set 4. [Related pubchem assays (depositor defined):AID2013, AID2026]; format: functional
[15] = biological target: G-protein coupled receptor 55 (Homo sapiens, UniProt Q9Y2T6); test: SAR Analysis of Selective Antagonists of GPR55 using an Image-Based Assay - Set 4. [Related pubchem assays (depositor defined):AID2013, AID2026]; format: functional;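 note: antagonism of response to 5 µM lysophosphatidylinositol agonist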
[16] = biological target: T8, Cannabinoid receptor 2 (Homo sapiens, UniProt P34972); test: SAR analysis of antagonists of the Cannabinoid Receptor 2 using an Image-Based Assay - Set 3. [Related pubchem assays (depositor defined):AID2013, AID2026]; format: functional
[17] = biological target: T8, Cannabinoid receptor 2; test: SAR analysis of agonists of the Cannabinoid Receptor 2 using an Image-Based Assay - Set 3. [Related pubchem assays (depositor defined):AID2013, AID2026]; format: functional
[18] = biological target: Intestinal-type alkaline phosphatase (Homo sapiens, UniProt P09923); test: human intestinal alkaline phosphatase activators, dose response, biochemical, luminescence, uHTS hits (AID 463120); format: functional
Chain of Intestinal-type alkaline phosphatase (P09923 whole entry): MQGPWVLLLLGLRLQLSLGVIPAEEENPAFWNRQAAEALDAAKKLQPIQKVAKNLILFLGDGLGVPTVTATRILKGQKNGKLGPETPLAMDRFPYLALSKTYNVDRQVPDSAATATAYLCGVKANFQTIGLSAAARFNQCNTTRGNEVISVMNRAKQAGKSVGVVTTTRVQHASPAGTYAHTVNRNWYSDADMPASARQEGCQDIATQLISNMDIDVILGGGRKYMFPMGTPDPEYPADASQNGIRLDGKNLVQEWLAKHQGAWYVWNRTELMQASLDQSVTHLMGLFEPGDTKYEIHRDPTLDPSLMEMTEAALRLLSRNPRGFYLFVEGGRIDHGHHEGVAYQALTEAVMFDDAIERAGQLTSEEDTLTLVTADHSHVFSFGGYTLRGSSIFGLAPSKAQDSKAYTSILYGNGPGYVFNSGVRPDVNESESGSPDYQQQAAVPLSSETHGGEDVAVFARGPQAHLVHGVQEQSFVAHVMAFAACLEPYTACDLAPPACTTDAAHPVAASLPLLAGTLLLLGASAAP

T7 sequence (P21554 whole entry): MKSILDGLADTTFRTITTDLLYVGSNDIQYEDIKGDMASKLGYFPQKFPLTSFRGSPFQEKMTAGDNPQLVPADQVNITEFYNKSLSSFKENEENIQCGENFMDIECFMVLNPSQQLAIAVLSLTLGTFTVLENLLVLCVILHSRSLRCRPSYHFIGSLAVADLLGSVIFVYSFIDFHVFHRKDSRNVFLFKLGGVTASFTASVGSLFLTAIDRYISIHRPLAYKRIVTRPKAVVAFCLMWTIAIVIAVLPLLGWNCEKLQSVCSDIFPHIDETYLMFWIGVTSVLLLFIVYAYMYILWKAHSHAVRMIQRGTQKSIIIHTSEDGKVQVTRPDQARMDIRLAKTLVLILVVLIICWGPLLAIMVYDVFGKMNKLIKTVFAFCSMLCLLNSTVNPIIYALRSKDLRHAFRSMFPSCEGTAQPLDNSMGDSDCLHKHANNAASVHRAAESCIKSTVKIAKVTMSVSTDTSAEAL
T2 sequence (P41145 whole entry): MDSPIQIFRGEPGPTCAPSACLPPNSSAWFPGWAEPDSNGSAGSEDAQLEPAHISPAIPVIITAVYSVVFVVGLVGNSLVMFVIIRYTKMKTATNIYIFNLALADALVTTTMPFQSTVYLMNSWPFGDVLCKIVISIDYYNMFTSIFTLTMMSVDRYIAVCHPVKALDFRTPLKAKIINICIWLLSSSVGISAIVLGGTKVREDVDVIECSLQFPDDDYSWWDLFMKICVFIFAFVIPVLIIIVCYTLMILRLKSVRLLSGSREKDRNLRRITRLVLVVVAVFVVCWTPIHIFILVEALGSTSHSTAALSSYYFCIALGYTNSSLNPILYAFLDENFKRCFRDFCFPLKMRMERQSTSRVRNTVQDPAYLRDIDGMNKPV
T6 sequence (Q9HC97 whole entry): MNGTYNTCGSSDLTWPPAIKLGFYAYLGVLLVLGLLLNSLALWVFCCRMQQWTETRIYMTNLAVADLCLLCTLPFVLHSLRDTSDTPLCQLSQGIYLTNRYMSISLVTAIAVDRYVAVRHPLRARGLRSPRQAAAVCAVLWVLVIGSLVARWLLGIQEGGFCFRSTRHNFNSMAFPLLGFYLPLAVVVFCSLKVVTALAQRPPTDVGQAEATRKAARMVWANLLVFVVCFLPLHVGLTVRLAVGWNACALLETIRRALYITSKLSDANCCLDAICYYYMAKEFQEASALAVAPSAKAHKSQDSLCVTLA
T8 sequence (P34972 whole entry): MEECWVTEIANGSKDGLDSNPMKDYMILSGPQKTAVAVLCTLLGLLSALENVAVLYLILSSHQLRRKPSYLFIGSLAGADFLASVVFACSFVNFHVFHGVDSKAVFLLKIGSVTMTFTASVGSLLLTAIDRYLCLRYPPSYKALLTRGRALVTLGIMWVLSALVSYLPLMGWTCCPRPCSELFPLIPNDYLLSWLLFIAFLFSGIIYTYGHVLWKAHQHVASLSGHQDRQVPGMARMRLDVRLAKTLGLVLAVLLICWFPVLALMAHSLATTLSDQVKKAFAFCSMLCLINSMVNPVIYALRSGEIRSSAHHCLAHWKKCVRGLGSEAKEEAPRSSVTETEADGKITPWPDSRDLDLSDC
Chain of G-protein coupled receptor 55 (Q9Y2T6 whole entry): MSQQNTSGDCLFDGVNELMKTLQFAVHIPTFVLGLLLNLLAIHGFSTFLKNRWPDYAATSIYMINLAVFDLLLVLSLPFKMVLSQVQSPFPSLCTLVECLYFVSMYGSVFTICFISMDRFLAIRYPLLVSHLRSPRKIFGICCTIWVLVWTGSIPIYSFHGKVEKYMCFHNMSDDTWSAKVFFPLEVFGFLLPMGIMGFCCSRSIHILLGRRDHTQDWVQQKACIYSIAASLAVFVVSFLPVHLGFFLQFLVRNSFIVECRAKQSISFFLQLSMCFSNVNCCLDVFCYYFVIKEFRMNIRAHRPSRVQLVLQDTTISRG
Chain of Mucolipin-3 (Q8TDD5 whole entry): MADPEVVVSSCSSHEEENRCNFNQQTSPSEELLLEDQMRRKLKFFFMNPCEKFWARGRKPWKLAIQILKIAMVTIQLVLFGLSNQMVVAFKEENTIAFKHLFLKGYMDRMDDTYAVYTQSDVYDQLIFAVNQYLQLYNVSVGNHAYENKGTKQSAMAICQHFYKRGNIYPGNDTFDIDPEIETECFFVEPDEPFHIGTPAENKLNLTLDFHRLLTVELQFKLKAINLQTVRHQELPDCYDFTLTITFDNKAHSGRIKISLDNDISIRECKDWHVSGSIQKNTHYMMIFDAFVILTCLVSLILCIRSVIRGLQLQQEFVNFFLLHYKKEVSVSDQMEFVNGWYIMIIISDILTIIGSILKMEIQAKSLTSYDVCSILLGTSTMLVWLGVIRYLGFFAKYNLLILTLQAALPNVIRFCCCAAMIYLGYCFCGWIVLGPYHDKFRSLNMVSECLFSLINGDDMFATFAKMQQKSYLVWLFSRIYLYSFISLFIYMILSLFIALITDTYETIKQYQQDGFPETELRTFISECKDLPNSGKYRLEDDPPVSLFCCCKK
Chain of Ion channel NompC (Q7T1G6 whole entry): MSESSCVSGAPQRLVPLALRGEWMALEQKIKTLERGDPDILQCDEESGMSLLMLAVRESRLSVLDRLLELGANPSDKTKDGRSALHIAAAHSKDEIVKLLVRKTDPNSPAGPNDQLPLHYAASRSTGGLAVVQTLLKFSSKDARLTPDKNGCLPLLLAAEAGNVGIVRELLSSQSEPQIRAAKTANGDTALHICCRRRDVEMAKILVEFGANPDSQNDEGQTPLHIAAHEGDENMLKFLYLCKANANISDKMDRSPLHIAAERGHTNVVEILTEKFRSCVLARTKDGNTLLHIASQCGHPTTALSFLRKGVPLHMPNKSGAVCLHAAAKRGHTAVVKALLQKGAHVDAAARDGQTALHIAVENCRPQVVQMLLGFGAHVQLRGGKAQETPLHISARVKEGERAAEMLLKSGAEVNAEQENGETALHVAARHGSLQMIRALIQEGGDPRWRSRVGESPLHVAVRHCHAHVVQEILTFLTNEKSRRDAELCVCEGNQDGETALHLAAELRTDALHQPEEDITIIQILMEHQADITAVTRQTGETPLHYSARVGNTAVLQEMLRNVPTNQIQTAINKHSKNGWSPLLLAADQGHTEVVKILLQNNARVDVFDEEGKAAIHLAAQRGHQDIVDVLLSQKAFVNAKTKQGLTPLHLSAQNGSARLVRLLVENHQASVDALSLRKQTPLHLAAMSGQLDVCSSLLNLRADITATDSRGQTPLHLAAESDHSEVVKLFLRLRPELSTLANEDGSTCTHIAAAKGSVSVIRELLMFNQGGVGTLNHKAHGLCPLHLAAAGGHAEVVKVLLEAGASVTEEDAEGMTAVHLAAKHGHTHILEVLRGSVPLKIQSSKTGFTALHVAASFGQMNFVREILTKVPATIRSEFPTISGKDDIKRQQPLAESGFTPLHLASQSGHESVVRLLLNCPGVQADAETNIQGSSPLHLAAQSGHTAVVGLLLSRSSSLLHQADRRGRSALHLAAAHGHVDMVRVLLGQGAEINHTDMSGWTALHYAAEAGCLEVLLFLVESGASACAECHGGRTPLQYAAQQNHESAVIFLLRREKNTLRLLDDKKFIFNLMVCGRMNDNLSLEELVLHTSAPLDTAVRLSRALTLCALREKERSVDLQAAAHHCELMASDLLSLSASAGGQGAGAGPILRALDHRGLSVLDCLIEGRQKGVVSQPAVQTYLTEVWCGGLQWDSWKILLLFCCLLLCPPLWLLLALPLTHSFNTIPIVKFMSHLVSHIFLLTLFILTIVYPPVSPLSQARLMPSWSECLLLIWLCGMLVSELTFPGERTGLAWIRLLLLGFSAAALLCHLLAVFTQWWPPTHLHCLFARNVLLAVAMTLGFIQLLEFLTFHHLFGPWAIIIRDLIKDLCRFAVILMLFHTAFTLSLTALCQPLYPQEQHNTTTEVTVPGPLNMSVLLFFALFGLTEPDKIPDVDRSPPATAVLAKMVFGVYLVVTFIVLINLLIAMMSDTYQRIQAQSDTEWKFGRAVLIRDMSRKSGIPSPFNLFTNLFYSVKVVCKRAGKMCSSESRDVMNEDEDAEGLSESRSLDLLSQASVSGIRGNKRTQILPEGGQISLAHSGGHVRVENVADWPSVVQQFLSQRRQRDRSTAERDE

SMILES: O=C(Cn1c(-c2ccccc2)c[n+]2ccsc12)c1ccc(Br)cc1
EC50 [1]: 0.668 µM (active)

SMILES: CCCN(CCC)CCCNC(=O)CNC(=O)c1nn(-c2ccc(OC)cc2)c(=O)c2ccccc12
EC50 [1]: 3.76 µM (active)

SMILES: Cc1c(C(=O)C2=C(O)C(=O)N(CCN3CCOCC3)C2c2cccs2)cnn1-c1ccccc1 (centres undefined)
IC50 [4]: > 50 µM (inactive)

SMILES: O=C(O)c1cccc(-c2ccc(/C=N/Nc3ccc([N+](=O)[O-])cc3)o2)c1
IC50 [5]: 27.3 µM (active)
IC50 [6]: > 55.6 µM (not active)
EC50 [7]: 12 µM (inactive)
EC50 [8]: > 29.9 µM (not active)
IC50 [9]: > 55.9 µM (not active)
AC50 [10]: 6.38 µM (active)

SMILES: COc1cc(NC(=O)c2cc3nc(C4CC4)cc(C(F)(F)F)n3n2)c(OC)cc1Cl
IC50 [4]: > 50 µM (inactive)

SMILES: COc1ccc(C2(C(=O)N3CCC(n4nc(-c5ccccc5)oc4=O)CC3)CC2)cc1
EC50 [11]: > 32 µM (inactive)
EC50 [12]: > 32 µM (inactive)
IC50 [13]: > 32 µM (inactive)
IC50 [14]: 7.11 µM (active)
IC50 [15]: 9.55 µM (active)
IC50 [16]: > 32 µM (inactive)
EC50 [17]: > 32 µM (inactive)

SMILES: O=C(N/N=C/c1cccc([N+](=O)[O-])c1)c1nc(O)c2ccccc2n1
EC50 [18]: 8.34 µM (active)

More lines, now with the values ahead:

IC50 [2]: 10.3 µM (inactive)
IC50 [3]: 3.5 µM (active)
SMILES: CC(C)N(CCNC(=O)c1ccc(CNS(=O)(=O)Cc2ccccc2)cc1)Cc1ccccc1

EC50 [11]: > 32 µM (inactive)
EC50 [12]: > 32 µM (inactive)
IC50 [13]: > 32 µM (inactive)
IC50 [14]: 19.6 µM (inactive)
IC50 [15]: > 32 µM (inactive)
IC50 [16]: > 32 µM (inactive)
EC50 [17]: 26.8 µM (inactive)
SMILES: Cc1nc(N2CCN(C(=O)c3ccc4c(c3)nc(C)n4C)CC2)c2c3c(sc2n1)CC(C)CC3 (centres undefined)

IC50 [2]: > 20 µM (inactive)
IC50 [3]: > 20 µM (inactive)
SMILES: O=C(Cn1c(=O)c2cccn2c2cc(Br)cnc21)NCCCN1CCN(c2ccccc2)CC1
